In patent US9744222B2, “Peptide for vaccine” (Circassia Limited, priority 2007, dated 2017):
Where a SMILES comes first, the peptide text is derived from it.

What was measured:
PBMC's = test: Cytokine release assay (IL-13, IFN-gamma); type: cell-based, human; conditions: IL-13 or IFN-gamma response greater than 100 pg/ml
Procedure: Cytokine secretion profiles from PBMC's are analysed in response to the peptide stimulation using the peptides from Example 3.
Thus, an individual was considered to have responded to a peptide if cells from that individual yielded a response greater than 100 pg/ml for either […] or IFN-gamma.

[1] = Solubility pre-screen of peptides; conditions: pre-screened for solubility in an aqueous, acidic milieu; YES/NO
Procedure: Methods The assay employed is a competitive MHC class II binding assay, wherein each peptide is analysed for its ability to displace a known control binder from each of the human MHC class II allotypes investigated.
Also shown is the solubility status of the peptide at the highest concentrations in the aqueous solution of the binding assay. The value illustrates the lowest concentration at which an insoluble white precipitate is seen.

[2] = Precipitation in aqueous solution of the binding assay; type: physicochemical
Excerpt: This is a characteristic of promiscuous HLA-DRB1* binders.

[3] = lowest concentration at which an insoluble white precipitate is seen in the aqueous solution of the binding assay
[4] = lowest concentration at which an insoluble white precipitate is seen, value in brackets

Compound | Solubility test [1] | other results
SYYRYVAREQS [HDM205] |  | Ranking of peptides by percentage of responders (in words) (PBMC's): top five peptides
CC(C)C[C@H](NC(=O)[C@H](CC(=O)O)NC(=O)[C@@H](N)CCCCN)C(=O)N[C@@H](CC(=O)O)C(=O)N[C@@H](C)C(=O)N[C@@H](Cc1ccccc1)C(=O)N[C@@H](CCCNC(=N)N)C(=O)N[C@@H](Cc1c[nH]cn1)C(=O)N[C@@H](Cc1ccc(O)cc1)C(=O)N[C@@H](CC(=O)O)C(=O)NCC(=O)N[C@@H](CCCNC(=N)N)C(=O)N[C@H](C(=O)O)[C@@H](C)O [HDM12] (H-KDLDAFRHYDGRT-OH; N-terminus and C-terminus assumed) | YES | 
CC(C)C[C@H](NC(=O)[C@H](CCC(N)=O)NC(=O)[C@H](Cc1ccccc1)NC(=O)[C@@H]1CCCN1C(=O)[C@H](CCCCN)NC(=O)CNC(=O)[C@@H](N)CCCNC(=N)N)C(=O)N[C@@H](CCC(=O)O)C(=O)N[C@@H](C)C(=O)N[C@H](C(=O)N[C@@H](Cc1ccccc1)C(=O)N[C@@H](CCC(=O)O)C(=O)N[C@@H](C)C(=O)N[C@@H](CC(N)=O)C(=O)N[C@@H](CCC(N)=O)C(=O)N[C@@H](CC(N)=O)C(=O)N[C@H](C(=O)O)[C@@H](C)O)C(C)C [HDM21B] (H-RGKPFQLEAVFEANQNT-OH; N-terminus and C-terminus assumed) | YES | 
CSCC[C@H](NC(=O)[C@@H]1CCCN1C(=O)[C@H](CC(=O)O)NC(=O)[C@H](Cc1ccccc1)NC(=O)[C@@H](NC(=O)[C@@H](N)CCC(=O)O)[C@@H](C)O)C(=O)N[C@@H](CCCCN)C(=O)N[C@H](C(=O)N1CCC[C@H]1C(=O)N[C@@H](CC(=O)O)C(=O)N[C@@H](Cc1c[nH]cn1)C(=O)N[C@@H](CO)C(=O)N[C@@H](CC(=O)O)C(=O)O)C(C)C [HDM29] (H-ETFDPMKVPDHSD-OH; N-terminus and C-terminus assumed) | YES | 
CC(C)[C@H](NC(=O)[C@H](CCCNC(=N)N)NC(=O)[C@@H](N)CCCCN)C(=O)NCC(=O)N[C@@H](CC(=O)O)C(=O)N[C@@H](C)C(=O)N[C@@H](CC(N)=O)C(=O)N[C@H](C(=O)N[C@@H](CCCCN)C(=O)N[C@@H](CO)C(=O)N[C@@H](CCC(=O)O)C(=O)N[C@@H](CC(=O)O)C(=O)NCC(=O)O)C(C)C [HDM36] (H-KRVGDANVKSEDG-OH; N-terminus and C-terminus assumed) | YES | 
CC[C@H](C)[C@H](N)C(=O)N[C@@H](CC(=O)O)C(=O)N[C@@H](CC(C)C)C(=O)N[C@@H](CCCCN)C(=O)NCC(=O)N[C@@H](CCC(=O)O)C(=O)N[C@@H](CC(C)C)C(=O)N[C@@H](CC(=O)O)C(=O)N[C@@H](CCSC)C(=O)N[C@@H](CCCNC(=N)N)C(=O)N[C@@H](CC(N)=O)C(=O)N[C@H](C(=O)N[C@@H](CCC(N)=O)C(=O)O)[C@@H](C)CC [HDM32] (H-IDLKGELDMRNIQ-OH; N-terminus and C-terminus assumed) | YES | 
VSMEYDLAYKLGDLH [HDM40A] |  | Precipitation in assay [2, 3]: 10000 µM; Precipitation in assay [2, 4]: (1.8 mg/ml)
CC[C@H](C)[C@H](N)C(=O)N[C@@H](CC(=O)O)C(=O)N[C@@H](CC(C)C)C(=O)N[C@@H](CCCNC(=N)N)C(=O)N[C@@H](CCC(N)=O)C(=O)N[C@@H](CCSC)C(=O)N[C@@H](CCCNC(=N)N)C(=O)N[C@H](C(=O)N[C@H](C(=O)N[C@H](C(=O)N1CCC[C@H]1C(=O)N[C@H](C(=O)N[C@@H](CCCNC(=N)N)C(=O)O)[C@@H](C)CC)[C@@H](C)O)C(C)C)[C@@H](C)O [HDM01] (H-IDLRQMRTVTPIR-OH; N-terminus and C-terminus assumed) | YES | 
CC[C@H](C)[C@H](N)C(=O)N[C@@H](CC(=O)O)C(=O)N[C@@H](CC(C)C)C(=O)N[C@@H](CCCCN)C(=O)NCC(=O)N[C@@H](CCC(=O)O)C(=O)N[C@@H](CC(C)C)C(=O)N[C@@H](CC(=O)O)C(=O)N[C@@H](CCSC)C(=O)N[C@@H](CCCNC(=N)N)C(=O)N[C@@H](CC(N)=O)C(=O)N[C@H](C(=O)N[C@@H](CCC(N)=O)C(=O)N[C@H](C(=O)N[C@@H](CCCNC(=N)N)C(=O)O)C(C)C)[C@@H](C)CC [HDM32A] (H-IDLKGELDMRNIQVR-OH; N-terminus and C-terminus assumed) | YES | 
CC[C@H](C)[C@H](NC(=O)[C@H](C)NC(=O)[C@@H](N)[C@@H](C)O)C(=O)N[C@@H](Cc1ccccc1)C(=O)N[C@@H](CCC(N)=O)C(=O)N[C@@H](CC(=O)O)C(=O)N[C@H](C(=O)N[C@H](C(=O)N[C@@H](CCCNC(=N)N)C(=O)N[C@@H](C)C(=O)N[C@@H](CCC(=O)O)C(=O)N[C@@H](CCSC)C(=O)N[C@H](C(=O)N[C@@H](CCCCN)C(=O)O)[C@@H](C)O)C(C)C)[C@@H](C)O [HDM48] (H-TAIFQDTVRAEMTK-OH; N-terminus and C-terminus assumed) | YES | 
CC(C)[C@H](NC(=O)CNC(=O)[C@H](CC(=O)O)NC(=O)[C@H](CCC(=O)O)NC(=O)[C@H](CO)NC(=O)[C@H](CCCCN)NC(=O)[C@@H](NC(=O)[C@H](CC(N)=O)NC(=O)[C@H](C)N)C(C)C)C(=O)N[C@H](C(=O)N[C@@H](CCCCN)C(=O)N[C@@H](C)C(=O)N[C@@H](Cc1c[nH]cn1)C(=O)O)C(C)C [HDM37] (H-ANVKSEDGVVKAH-OH; N-terminus and C-terminus assumed) | YES | 
CC(C)C[C@H](NC(=O)[C@H](CC(=O)O)NC(=O)[C@H](CC(C)C)NC(=O)[C@H](CCC(=O)O)NC(=O)[C@H](CO)NC(=O)[C@@H]1CCCN1C(=O)[C@@H](NC(=O)[C@H](CC(N)=O)NC(=O)[C@@H](NC(=O)[C@H](CO)NC(=O)[C@@H](N)CC(N)=O)C(C)C)C(C)C)C(=O)N[C@@H](CCCNC(=N)N)C(=O)N[C@@H](CO)C(=O)N[C@@H](CC(C)C)C(=O)N[C@@H](CCCNC(=N)N)C(=O)N[C@H](C(=O)O)[C@@H](C)O [HDM17] (H-NSVNVPSELDLRSLRT-OH; N-terminus and C-terminus assumed) | YES | 
CSCC[C@H](NC(=O)[C@H](CCC(=O)O)NC(=O)[C@H](C)NC(=O)[C@H](CCCNC(=N)N)NC(=O)[C@@H](NC(=O)[C@@H](NC(=O)[C@@H](N)CC(=O)O)[C@@H](C)O)C(C)C)C(=O)N[C@H](C(=O)N[C@@H](CCCCN)C(=O)N[C@H](C(=O)N[C@@H](CC(C)C)C(=O)N[C@@H](C)C(=O)N1CCC[C@H]1C(=O)O)C(C)C)[C@@H](C)O [HDM49] (H-DTVRAEMTKVLAP-OH; N-terminus and C-terminus assumed) | YES | 
CC[C@H](C)[C@H](NC(=O)[C@H](CCC(=O)O)NC(=O)[C@H](Cc1c[nH]cn1)NC(=O)[C@H](CC(N)=O)NC(=O)[C@H](C)NC(=O)[C@H](CS)NC(=O)[C@H](CC(=O)O)NC(=O)[C@H](CCCCN)NC(=O)[C@@H](NC(=O)[C@H](CC(=O)O)NC(=O)[C@@H](NC(=O)[C@H](CCC(N)=O)NC(=O)[C@@H](N)CC(=O)O)C(C)C)C(C)C)C(=O)N[C@@H](CCCCN)C(=O)N[C@@H](CCCCN)C(=O)O [HDM19] (H-DQVDVKDCANHEIKK-OH; N-terminus and C-terminus assumed) | YES | 
HDDVVSMEYDLAYKL [HDM39A] |  | Precipitation in assay [2, 3]: 10000 µM; Precipitation in assay [2, 4]: (1.8 mg/ml)
CC[C@H](C)[C@H](NC(=O)CNC(=O)[C@@H](NC(=O)[C@@H](N)Cc1c[nH]cn1)[C@@H](C)CC)C(=O)N[C@H](C(=O)N[C@@H](CC(=O)O)C(=O)N[C@@H](CC(C)C)C(=O)N[C@@H](CCCCN)C(=O)NCC(=O)N[C@@H](CCC(=O)O)C(=O)N[C@@H](CC(C)C)C(=O)N[C@@H](CC(=O)O)C(=O)N[C@@H](CCSC)C(=O)N[C@@H](CCCNC(=N)N)C(=O)N[C@@H](CC(N)=O)C(=O)O)[C@@H](C)CC [HDM31A] (H-HIGIIDLKGELDMRN-OH; N-terminus and C-terminus assumed) | YES | 
CC[C@H](C)[C@H](NC(=O)[C@H](CCC(=O)O)NC(=O)[C@@H](NC(=O)[C@H](CCCCN)NC(=O)[C@H](C)N)[C@@H](C)CC)C(=O)N[C@@H](CCCCN)C(=O)N[C@@H](C)C(=O)N[C@@H](CO)C(=O)N[C@@H](CC(C)C)C(=O)N[C@@H](CC(=O)O)C(=O)NCC(=O)N[C@@H](CC(C)C)C(=O)N[C@@H](CCC(=O)O)C(=O)O [HDM27] (H-AKIEIKASLDGLE-OH; N-terminus and C-terminus assumed) | YES | 
CC(C)[C@H](NC(=O)[C@H](C)NC(=O)[C@@H](N)CCC(=O)O)C(=O)N[C@@H](Cc1ccccc1)C(=O)N[C@@H](CCC(=O)O)C(=O)N[C@@H](C)C(=O)N[C@@H](CC(N)=O)C(=O)N[C@@H](CCC(N)=O)C(=O)N[C@@H](CC(N)=O)C(=O)N[C@H](C(=O)N[C@@H](CCCCN)C(=O)N[C@H](C(=O)N[C@@H](C)C(=O)N[C@@H](CCCCN)C(=O)O)[C@@H](C)O)[C@@H](C)O [HDM22A] (H-EAVFEANQNTKTAK-OH; N-terminus and C-terminus assumed) | YES | 
CC[C@H](C)[C@H](NC(=O)[C@H](C)NC(=O)[C@H](C)NC(=O)[C@@H](NC(=O)[C@H](C)NC(=O)[C@H](CCC(=O)O)NC(=O)[C@H](CC(=O)O)NC(=O)[C@@H](NC(=O)[C@H](C)NC(=O)[C@@H](N)CCCCN)C(C)C)C(C)C)C(=O)N[C@@H](CCC(=O)O)C(=O)N[C@@H](CCCCN)C(=O)N[C@@H](CO)C(=O)O [HDM28] (H-KAVDEAVAAIEKS-OH; N-terminus and C-terminus assumed) | YES | 
